Laboratory results published in US20240425478A1, “CYCLOPENTYLPYRAZOLE CDK2 INHIBITORS” (Genentech, Inc., priority 2021, published 2024).
pIC50, pKi: −log10 of the molar value. Read-outs that look alike come from different tables or passages of the source.

What was measured:
[1] = target: T1, Cyclin Dependent Kinase 1/Cyclin A2 (CDK1-cycA2) (Homo sapiens, UniProt P06493); test: CDK1-cycA2 TR-FRET (Lance) enzyme assay; type: biochemical; details: for pKi: Table O, enzymatic assay; for FS CDK1/CDK2: fold selectivity, enzymatic Ki ratio
T1 construct: purchased ProQinase 0134-0054-1
T1 sequence (P06493 whole entry): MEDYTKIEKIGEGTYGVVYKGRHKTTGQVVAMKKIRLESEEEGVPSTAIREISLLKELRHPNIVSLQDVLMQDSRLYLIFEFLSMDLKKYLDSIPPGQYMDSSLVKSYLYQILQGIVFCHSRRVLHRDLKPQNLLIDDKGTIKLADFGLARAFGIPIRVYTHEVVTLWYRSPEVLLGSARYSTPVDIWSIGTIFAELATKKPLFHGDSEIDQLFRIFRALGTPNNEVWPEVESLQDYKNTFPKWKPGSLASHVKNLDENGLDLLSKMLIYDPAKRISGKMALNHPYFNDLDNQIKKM
T1 sequence (P20248 whole entry partner): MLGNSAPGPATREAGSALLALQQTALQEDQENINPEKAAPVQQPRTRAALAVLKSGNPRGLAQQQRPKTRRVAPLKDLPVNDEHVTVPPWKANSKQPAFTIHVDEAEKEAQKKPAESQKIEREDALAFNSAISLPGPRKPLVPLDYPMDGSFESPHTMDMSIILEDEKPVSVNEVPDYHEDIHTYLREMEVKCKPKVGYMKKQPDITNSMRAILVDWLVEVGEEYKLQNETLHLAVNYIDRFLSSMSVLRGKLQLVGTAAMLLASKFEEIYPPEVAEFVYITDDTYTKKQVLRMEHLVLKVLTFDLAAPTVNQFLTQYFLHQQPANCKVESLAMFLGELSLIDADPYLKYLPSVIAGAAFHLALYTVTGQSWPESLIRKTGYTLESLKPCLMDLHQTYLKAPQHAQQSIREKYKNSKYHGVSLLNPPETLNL
In short: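 TR-FRET (Lance) detection of phospho-4E-BP1 with a europium-labelled antibody after EDTA quench (15 mM final); signal taken as acceptor/donor ratio. Enzyme and compound were pre-incubated 30 min in HEPES pH 7.5 buffer with MgCl2, TCEP, BGG and Brij 35. Ki derived by Morrison fit.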

[2] = target: T2, Cyclin Dependent Kinase 2/Cyclin E1 (CDK2-cycE1) (Homo sapiens, UniProt P24941); test: CDK2-cycE1 TR-FRET (LANCE) enzyme assay; type: biochemical; details: for FS CDK1/CDK2 / FS CDK4/CDK2: fold selectivity; for FS CDK1/CDK2: enzymatic CDK1 Ki over CDK2 Ki; for FS CDK4/CDK2: enzymatic CDK4 Ki over CDK2 Ki
T2 construct: purchased ProQinase 0050-0055-1
In short: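 Kinase reaction buffer: 50 mM HEPES pH 7.5, 10 mM MgCl2, 2 mM TCEP, 0.05% BGG, 0.01% Brij 35, with 30 min compound–enzyme pre-incubation.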

[3] = target: T3, Cyclin Dependent Kinase 4/Cyclin D3 (CDK4-cycD3) (Homo sapiens, UniProt P11802); test: CDK4-cycD3 TR-FRET (LANCE) enzyme assay; type: biochemical; details: for pKi: Table O, enzymatic assay; for FS CDK4/CDK2: fold selectivity, enzymatic Ki ratio
T3 construct: purchased Carna Biosciences 04-105
T3 sequence (P11802 whole entry): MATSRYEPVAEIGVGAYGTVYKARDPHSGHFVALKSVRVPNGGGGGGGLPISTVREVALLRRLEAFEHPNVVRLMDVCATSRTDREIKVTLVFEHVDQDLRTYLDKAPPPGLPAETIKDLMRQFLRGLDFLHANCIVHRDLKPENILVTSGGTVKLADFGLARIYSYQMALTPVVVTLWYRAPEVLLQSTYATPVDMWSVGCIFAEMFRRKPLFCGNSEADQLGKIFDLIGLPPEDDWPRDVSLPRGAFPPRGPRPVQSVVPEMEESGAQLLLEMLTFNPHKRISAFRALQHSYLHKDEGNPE
T3 sequence (P30281 whole entry partner): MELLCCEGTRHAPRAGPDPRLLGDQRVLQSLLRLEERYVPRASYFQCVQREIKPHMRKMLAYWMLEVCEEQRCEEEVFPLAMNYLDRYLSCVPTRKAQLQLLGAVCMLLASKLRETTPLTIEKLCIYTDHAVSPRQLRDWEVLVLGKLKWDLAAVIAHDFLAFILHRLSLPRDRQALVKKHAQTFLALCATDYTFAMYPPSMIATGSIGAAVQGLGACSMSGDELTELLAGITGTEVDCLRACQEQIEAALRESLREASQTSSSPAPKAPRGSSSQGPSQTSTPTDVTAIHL
In short: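 Compound dose responses pre-incubated 30 min with enzyme mix in 50 mM HEPES pH 7.5, 10 mM MgCl2, 2 mM TCEP, 0.05% BGG, 0.01% Brij 35. Reaction quenched with EDTA (15 mM final); Eu-anti-phospho-4E-BP1 TR-FRET detection, acceptor/donor ratio. Ki derived by Morrison equation.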

[4] = system: OVISE (JCRB1043, CCNE1-amplified); test: OVISE EdU incorporation cell proliferation assay (CDK2-dependent); type: cell-based; details: for pIC50 / FS SKOV-3/OVISE / FS p-H3/OVISE: Table O; for pIC50: cellular assay, read-out: CDK2 OVISE IC50; for FS SKOV-3/OVISE / FS p-H3/OVISE: fold selectivity; for FS SKOV-3/OVISE: cellular SKOV-3 IC50 over OVISE IC50; for FS p-H3/OVISE: cellular p-H3 IC50 over OVISE IC50
In short: (§1)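 EdU incorporation (0.5 μM final, last 8 h) follows a 16 h compound exposure at 37 °C, 5% CO2 in RPMI plus 10% FBS, 0.5% DMSO. After fixation, imaging scores EdU-positive cells; a 4-parameter logistic fit of that fraction gives IC50.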

SKOV-3 (ATCC HTB-77) = test: SKOV-3 EdU incorporation cell proliferation assay (CDK4/6-dependent); type: cell-based; details: for pIC50: Homo sapiens, SK-OV-3, Table O, cellular assay, read-out: CDK4/6 SKOV-3 IC50; for FS SKOV-3/OVISE: fold selectivity, cellular IC50 ratio
In short: as §1

HCT116 cells = test: p-H3 HCT-116 mitotic release cell proliferation assay (cellular CDK1); type: cell-based; details: Homo sapiens, HCT-116; Table O, cellular assay; read-out: CDK1 p-H3 IC50
In short: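 Phospho-Histone H3 (Ser10) in lysates was quantified by a two-antibody HTRF FRET read (≥2 h, room temperature). Before this, HCT116 cells held in mitosis by 16 h of 500 nM nocodazole were treated with compound for 4 h at 37 °C, 0.1% DMSO.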

[5] = Table O, enzymatic assay, read-out: CDK2 Ki

Row | Structure (SMILES) | pKi [1] | pKi [2, 5] | FS CDK1/CDK2 ([2]; Table O) | FS CDK4/CDK2 ([2]; Table O) | pKi [3] | pIC50 [4] | FS SKOV-3/OVISE [4] | FS p-H3/OVISE [4] | pIC50 (SKOV-3 (ATCC HTB-77)) | pIC50 (HCT116 cells) | further results
1 | Cn1nc(Nc2cc([C@H]3CC[C@@H](OC(=O)NC45CC(C4)C5)C3)[nH]n2)ccc1=O [Example 6, (1R,3S)-3-(5-((1-methyl-6-oxo-1,6-dihydropyridazin-3-yl)amino)-1H-pyrazol-3-yl)cyclopentyl bicyclo[1.1.1]pentan-1-ylcarbamate] | 7.68 | > 10.00 | >33 | >320 | 7.70 | 7.80 | 81 | 1.4 | 5.89 | 7.64 | pKi ([2]; read-out: CDK2 activity / potency (enzymatic assay)): ≥ 9.00
2 | CN(C(=O)O[C@@H]1CC[C@H](c2cc(Nc3ccc(=O)n(C)n3)n[nH]2)C1)C(C)(C)C [Example 6B, (1R,3S)-3-(3-((1-methyl-6-oxo-1,6-dihydropyridazin-3-yl)amino)-1H-pyrazol-5-yl)cyclopentyl tert-butyl(methyl)carbamate] | 9.11 | > 10.00 | >12 | >120 | 8.13 | 7.57 | 14 | 0.32 | 6.41 | 8.06 | –
3 | Cn1nc(Nc2cc([C@H]3CC[C@@H](OC(=O)NC(C)(C)C)C3)[nH]n2)ccc1=O [Example 6C, (1R,3S)-3-(3-((1-methyl-6-oxo-1,6-dihydropyridazin-3-yl)amino)-1H-pyrazol-5-yl)cyclopentyl tert-butylcarbamate] | 8.44 | > 10.00 | >47 | >584 | 7.35 | 7.52 | 50 | 0.087 | 5.82 | 7.59 | FS CDK1/CDK2 increased over Comparator D, (+) sign ([1]; Table R): (+); FS CDK1/CDK2 ([1]; Table R): > 47; FS CDK1/CDK2 increased over Comparator E, (+) sign ([1]; Table S): (+); FS CDK1/CDK2 ([1]; Table S): > 47; pKi ([2]; Table R, enzymatic assay, read-out: CDK2 Ki): > 10.00; CDK2 Ki fold change in potency versus Comparator D ([2]; Table R, in brackets after CDK2 Ki): 27 fold; pKi ([2]; Table S, enzymatic assay, read-out: CDK2 Ki): > 10.00; CDK2 Ki fold change in potency versus Comparator E ([2]; Table S, in brackets after CDK2 Ki): 5.2 fold; FS CDK4/CDK2 increased over Comparator D, (+) sign ([3]; Table R): (+); FS CDK4/CDK2 ([3]; Table R): > 584; FS CDK4/CDK2 increased over Comparator E, (+) sign ([3]; Table S): (+); FS CDK4/CDK2 ([3]; Table S): > 584; CDK2 cell potency compared with Comparator E ([4]; CDK2 OVISE cellular assay data): more potent CDK2 cell inhibitors compared to Comparator E; CDK2 OVISE IC50 fold change in potency versus Comparator D ([4]; Table R, in brackets after OVISE IC50): 127 fold; CDK2 OVISE IC50 fold change in potency versus Comparator E ([4]; Table S, in brackets after OVISE IC50): 5.7 fold; selectivity for CDK2 over CDK4 compared with Comparator E (SKOV-3 (ATCC HTB-77); SKOV-3/OVISE fold-selectivity cellular assay data): increase in selectivity for CDK2 over CDK4; FS SKOV-3/OVISE increased over Comparator D, (+) sign (SKOV-3 (ATCC HTB-77); Table R): (+); FS SKOV-3/OVISE (SKOV-3 (ATCC HTB-77); Table R): 50; FS SKOV-3/OVISE increased over Comparator E, (+) sign (SKOV-3 (ATCC HTB-77); Table S): (+); FS SKOV-3/OVISE (SKOV-3 (ATCC HTB-77); Table S): 50
